From PubChem BioAssay (NCI)
Values joined by “and” are separate entries in the source; they are usually repeats but may differ in a detail not shown here. Identical values can stand only once.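 Grown in 96-well plates, cells were treated for 48 hours with each compound at five concentrations. Insufficient inhibition: endpoint recorded as highest concentration tested. GI50 is the concentration that inhibits growth by half. TGI: total growth inhibition.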

Tests used:
Test in all cases: NCI-60 cell line screen, 48 h
NCI/ADR-RES ovarian = tested on: NCI/ADR-RES ovarian
IGROV1 ovarian = tested on: IGROV1 ovarian
HT29 colon = tested on: HT29 colon
OVCAR-3 ovarian = tested on: OVCAR-3 ovarian
RPMI-8226 leukemia = tested on: RPMI-8226 leukemia
SW-620 colon = tested on: SW-620 colon
HCT-15 colon = tested on: HCT-15 colon
OVCAR-5 ovarian = tested on: OVCAR-5 ovarian
MCF7 breast = tested on: MCF7 breast
HS 578T breast = tested on: HS 578T breast

| SMILES | GI50 (NCI/ADR-RES ovarian) [µM] | TGI (NCI/ADR-RES ovarian) [µM] | GI50 (IGROV1 ovarian) | TGI (IGROV1 ovarian) | GI50 (HT29 colon) | TGI (HT29 colon) | GI50 (OVCAR-3 ovarian) | TGI (OVCAR-3 ovarian) | GI50 (RPMI-8226 leukemia) | TGI (RPMI-8226 leukemia) | GI50 (SW-620 colon) | TGI (SW-620 colon) | GI50 (HCT-15 colon) [µM] | TGI (HCT-15 colon) | GI50 (OVCAR-5 ovarian) [µM] | TGI (OVCAR-5 ovarian) | GI50 (MCF7 breast) [µM] | TGI (MCF7 breast) [µM] | GI50 (HS 578T breast) | TGI (HS 578T breast) |
| --- | --- | --- | --- | --- | --- | --- | --- | --- | --- | --- | --- | --- | --- | --- | --- | --- | --- | --- | --- | --- |
| Cc1ccc2[nH]c3c(c2c1)N=c1ccccc1=NO3 | 22.7 | 71.2 | 32.6 µM | > 100 µM | 76.1 µM | > 100 µM | 25.8 µM | > 100 µM | > 100 µM | > 100 µM | > 100 µM | > 100 µM | > 100 | > 100 µM | > 100 | > 100 µM | – | – | – | – |
| C#CCN(N=O)C(=O)NCCCCC(NC(=O)OCc1ccccc1)C(=O)OCc1ccccc1 (stereo unspecified) | – | – | – | > 100 µM | – | > 100 µM | – | 53.9 µM | – | > 100 µM | – | 31.1 µM | – | > 100 µM | – | > 100 µM | – | – | – | – |
| COC1CC(C)C(OC)c2cc(O)cc(c2O)NC(=O)/C(C)=C/C=C\C(C)C(OC(N)=O)/C(C)=C\C(C)C1OC (stereo unspecified) | – | – | 0.273 µM and 0.506 µM | 15.9 µM and 8 µM | 0.0526 µM and 0.116 µM | 12.2 µM and 10.3 µM | 0.938 µM and 0.552 µM and 0.186 µM | 5.31 µM and 7.4 µM | 0.174 µM and 0.383 µM | 32.4 µM and 5.93 µM | 0.0544 µM and 0.0649 µM | 3.7 µM and 3.97 µM | 4.91 | 11.9 µM and 12.7 µM | 0.549 | 20.5 µM and 11 µM | 0.0482 | 10.5 | 0.511 µM and 0.758 µM | 20.8 µM and 6.92 µM |
| COc1cc2c(c(O)c1C)C(=O)CC(c1ccccc1)O2 (stereo unspecified) | – | – | – | > 100 µM | – | > 10 µM | – | > 100 µM | – | – | – | > 10 µM | – | > 100 µM | – | > 100 µM | – | – | – | – |
| CCC[CH2][Sn]([CH2]CCC)([CH2]CCC)[O]C(=O)C(OC(C)=O)c1ccccc1 (stereo unspecified) | – | – | 0.153 µM | 0.323 µM | 0.127 µM | 0.26 µM | 0.137 µM | 0.274 µM | 0.0212 µM | 0.298 µM | 0.141 µM | 0.273 µM | 0.144 | 0.28 µM | 0.086 | 0.222 µM | – | – | – | – |
| CCN(CC)CCCOc1ccc2ncnc(Nc3ccc(Oc4cccc(C(F)(F)F)c4)c(Cl)c3)c2c1 | – | – | – | – | – | – | 1.45 µM | 2.84 µM | – | – | 1.61 µM | 3.09 µM | – | – | 1.56 | 2.99 µM | – | – | – | – |
| CCN(CCCl)CCCCCNc1c2ccccc2nc2ccc(OC)cc12 | – | – | – | 4.24 µM | – | 2.94 µM | – | 7.28 µM | – | 1.47 µM | – | 1.63 µM | – | 10.9 µM | – | 5.39 µM | – | – | – | – |
| Cn1cnc([N+](=O)[O-])c1Sc1nnnn1C | – | – | – | 49.1 µM | – | 40.5 µM | – | 29.4 µM | – | > 100 µM | – | 26 µM | – | – | – | 45.2 µM | – | – | – | – |
| CCOP(=O)(OCC)/C(C#N)=C\c1ccsc1 | – | – | – | – | – | > 100 µM | – | > 100 µM | – | > 100 µM | – | > 100 µM | – | > 100 µM | – | > 100 µM | – | – | – | – |
| Cc1ccc(NC(=O)C(=O)C(C(=O)c2ccc3ccccc3c2)C2OC(=O)c3ccccc32)c(C)c1 (stereo unspecified) | – | – | – | 39.9 µM | – | 57.6 µM | – | 31.5 µM | – | 40.4 µM | – | 21.6 µM | – | 40.2 µM | – | 36.5 µM | – | – | – | – |
| O=C1NC(=O)C(=Cc2c3ccccc3cc3ccccc23)C(=O)N1 | – | – | – | > 100 µM | – | > 100 µM | – | – | – | > 100 µM | – | > 100 µM | – | > 100 µM | – | – | – | – | – | – |
| O=C1C=CC(=O)C2C1Cc1ccccc1C2c1ccccc1 (stereo unspecified) | – | – | – | > 100 µM | – | > 100 µM | – | 88.3 µM | – | 67.6 µM | – | 71 µM | – | > 100 µM | – | > 100 µM | – | – | – | – |
| O=c1nc(NC(c2ccccc2)(c2ccccc2)c2ccccc2)ccn1CCCl | – | – | – | 48.1 µM | – | 35 µM | – | 27.6 µM | – | 55.7 µM | – | 48.6 µM | – | > 100 µM | – | 82.4 µM | – | – | – | – |
| Cc1cc(Br)cc(C)c1NC(=O)C(=O)C(C(=O)c1ccncc1)C1OC(=O)c2ccccc21 (stereo unspecified) | – | – | – | > 100 µM | – | – | – | > 100 µM | – | > 100 µM | – | > 100 µM | – | > 100 µM | – | > 100 µM | – | – | – | – |
| Cc1cc2c(c3nocc13)C(=O)c1ccccc1C2=O | – | – | – | > 100 µM | – | > 100 µM | – | > 100 µM | – | > 100 µM | – | > 100 µM | – | > 100 µM | – | > 100 µM | – | – | – | – |
| NCCOCn1cc(Cc2cccc(OCc3ccccc3)c2)c(=O)[nH]c1=O | – | – | – | > 100 µM | – | > 100 µM | – | > 100 µM | – | > 100 µM | – | > 100 µM | – | > 100 µM | – | – | – | – | – | – |
| O=C1OC(c2ccccc2)(c2ccccc2)c2ccc3ccc(F)cc3c21 | – | – | – | > 100 µM | – | > 100 µM | – | > 100 µM | – | > 100 µM | – | > 100 µM | – | > 100 µM | – | > 100 µM | – | – | – | – |
| COc1ccc(-c2nsc3c2NC(=O)CC3c2ccc3c(c2)OCCO3)cc1 (stereo unspecified) | – | – | 1.6 µM | > 100 µM | 0.419 µM | > 55.5 µM | 0.327 µM | 1.15 µM | 0.492 µM | 42.4 µM | 0.384 µM | > 100 µM | 0.504 | > 100 µM | 10.2 | > 100 µM | 0.371 | > 100 | 0.398 µM | > 100 µM |
